{"source": "paper PMC10247784", "about": "“Physiological activation of human and mouse bitter taste receptors by bile acids” (Communications Biology, 2023)", "molecular_target": "T1, mouse Tas2r108 (Mus musculus, UniProt Q9JKT3)", "T1 construct": "expressed in transfected cells; host or cells: HEK293T-Gα16gust44", "T1 sequence (Q9JKT3 1-297)": "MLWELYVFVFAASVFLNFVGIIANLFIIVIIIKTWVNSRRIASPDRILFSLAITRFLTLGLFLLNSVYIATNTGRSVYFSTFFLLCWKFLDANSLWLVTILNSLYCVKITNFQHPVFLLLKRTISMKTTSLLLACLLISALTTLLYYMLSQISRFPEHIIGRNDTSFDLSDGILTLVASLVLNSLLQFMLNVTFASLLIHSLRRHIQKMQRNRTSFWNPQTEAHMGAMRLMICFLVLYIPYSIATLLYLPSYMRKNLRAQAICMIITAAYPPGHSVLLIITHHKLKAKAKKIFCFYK", "test": "Calcium imaging assay (FLIPR), HEK293T-Gα16gust44 cells transfected with mouse Tas2r108", "type": "cell-based", "summary_of_the_method": "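HEK293T-Gα16gust44 cells transiently transfected with the bitter-taste receptor, loaded next day with Fluo-4-AM plus 2.5 mM probenecid, and challenged with bile acids on FLIPR Tetra. Signals mock-subtracted, expressed as ΔF/F vs buffer.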"}
{"smiles": "C[C@H](CCC(=O)NCCS(=O)(=O)O)[C@H]1CC[C@H]2[C@@H]3CC[C@@H]4C[C@H](O)CC[C@]4(C)[C@H]3CC[C@]12C", "note": "[Taurolithocholic Acid, taurolithocholic acid]", "values": [{"measurement": "RLU", "setting": "Time 0 s", "result": 0, "unit": "RLU"}, {"measurement": "RLU", "setting": "Time 2 s", "result": 0.6757, "unit": "RLU"}, {"measurement": "RLU", "setting": "Time 4 s", "result": -5.736, "unit": "RLU"}, {"measurement": "RLU", "setting": "Time 6 s", "result": 6.046, "unit": "RLU"}, {"measurement": "RLU", "setting": "Time 8 s", "result": 39.2838, "unit": "RLU"}, {"measurement": "RLU", "setting": "Time 12 s", "result": 8.803, "unit": "RLU"}, {"measurement": "RLU", "setting": "Time 14 s", "result": 5.215, "unit": "RLU"}, {"measurement": "RLU", "setting": "Time 16 s", "result": -9.6707, "unit": "RLU"}, {"measurement": "RLU", "setting": "Time 18 s", "result": -10.699, "unit": "RLU"}, {"measurement": "RLU", "setting": "Time 18.781 s", "result": 51.1832, "unit": "RLU"}, {"measurement": "RLU", "setting": "Time 20.781 s", "result": 31.0896, "unit": "RLU"}, {"measurement": "RLU", "setting": "Time 22.781 s", "result": 17.366, "unit": "RLU"}, {"measurement": "RLU", "setting": "Time 24.781 s", "result": 13.0906, "unit": "RLU"}, {"measurement": "RLU", "setting": "Time 26.781 s", "result": 51.6272, "unit": "RLU"}, {"measurement": "RLU", "setting": "Time 28.781 s", "result": 63.3328, "unit": "RLU"}, {"measurement": "RLU", "setting": "Time 30.781 s", "result": 109.429, "unit": "RLU"}, {"measurement": "RLU", "setting": "Time 32.781 s", "result": 151.07, "unit": "RLU"}, {"measurement": "RLU", "setting": "Time 34.781 s", "result": 184.905, "unit": "RLU"}, {"measurement": "RLU", "setting": "Time 36.781 s", "result": 210.816, "unit": "RLU"}, {"measurement": "RLU", "setting": "Time 38.781 s", "result": 242.967, "unit": "RLU"}, {"measurement": "RLU", "setting": "Time 40.781 s", "result": 265.916, "unit": "RLU"}, {"measurement": "RLU", "setting": "Time 42.781 s", "result": 261.677, "unit": "RLU"}, {"measurement": "RLU", "setting": "Time 44.781 s", "result": 303.058, "unit": "RLU"}, {"measurement": "RLU", "setting": "Time 46.781 s", "result": 324.099, "unit": "RLU"}, {"measurement": "RLU", "setting": "Time 48.781 s", "result": 311.969, "unit": "RLU"}, {"measurement": "RLU", "setting": "Time 50.781 s", "result": 342.074, "unit": "RLU"}, {"measurement": "RLU", "setting": "Time 52.781 s", "result": 343.185, "unit": "RLU"}, {"measurement": "RLU", "setting": "Time 54.781 s", "result": 378.711, "unit": "RLU"}, {"measurement": "RLU", "setting": "Time 56.781 s", "result": 389.7, "unit": "RLU"}, {"measurement": "RLU", "setting": "Time 58.781 s", "result": 401.227, "unit": "RLU"}, {"measurement": "RLU", "setting": "Time 60.781 s", "result": 410.325, "unit": "RLU"}, {"measurement": "RLU", "setting": "Time 62.781 s", "result": 416.305, "unit": "RLU"}, {"measurement": "RLU", "setting": "Time 64.781 s", "result": 417.574, "unit": "RLU"}, {"measurement": "RLU", "setting": "Time 66.781 s", "result": 434.462, "unit": "RLU"}, {"measurement": "RLU", "setting": "Time 68.781 s", "result": 456.387, "unit": "RLU"}, {"measurement": "RLU", "setting": "Time 70.781 s", "result": 443.293, "unit": "RLU"}, {"measurement": "RLU", "setting": "Time 72.781 s", "result": 455.898, "unit": "RLU"}, {"measurement": "RLU", "setting": "Time 74.781 s", "result": 461.633, "unit": "RLU"}, {"measurement": "RLU", "setting": "Time 76.781 s", "result": 455.071, "unit": "RLU"}, {"measurement": "RLU", "setting": "Time 78.781 s", "result": 466.188, "unit": "RLU"}, {"measurement": "RLU", "setting": "Time 80.781 s", "result": 477.183, "unit": "RLU"}, {"measurement": "RLU", "setting": "Time 82.781 s", "result": 506.736, "unit": "RLU"}, {"measurement": "RLU", "setting": "Time 84.781 s", "result": 503.228, "unit": "RLU"}, {"measurement": "RLU", "setting": "Time 86.781 s", "result": 489.189, "unit": "RLU"}, {"measurement": "RLU", "setting": "Time 88.781 s", "result": 473.872, "unit": "RLU"}, {"measurement": "RLU", "setting": "Time 90.781 s", "result": 497.168, "unit": "RLU"}, {"measurement": "RLU", "setting": "Time 92.781 s", "result": 472.229, "unit": "RLU"}, {"measurement": "RLU", "setting": "Time 94.781 s", "result": 481.838, "unit": "RLU"}, {"measurement": "RLU", "setting": "Time 96.781 s", "result": 467.082, "unit": "RLU"}, {"measurement": "RLU", "setting": "Time 98.781 s", "result": 510.678, "unit": "RLU"}, {"measurement": "RLU", "setting": "Time 100.781 s", "result": 498.898, "unit": "RLU"}, {"measurement": "RLU", "setting": "Time 102.781 s", "result": 493.381, "unit": "RLU"}, {"measurement": "RLU", "setting": "Time 104.781 s", "result": 508.478, "unit": "RLU"}, {"measurement": "RLU", "setting": "Time 106.781 s", "result": 488.526, "unit": "RLU"}, {"measurement": "RLU", "setting": "Time 108.781 s", "result": 487.641, "unit": "RLU"}, {"measurement": "RLU", "setting": "Time 110.781 s", "result": 528.304, "unit": "RLU"}, {"measurement": "RLU", "setting": "Time 112.781 s", "result": 500.584, "unit": "RLU"}, {"measurement": "RLU", "setting": "Time 114.781 s", "result": 484.964, "unit": "RLU"}, {"measurement": "RLU", "setting": "Time 116.781 s", "result": 486.198, "unit": "RLU"}, {"measurement": "RLU", "setting": "Time 118.781 s", "result": 494.318, "unit": "RLU"}, {"measurement": "RLU", "setting": "Time 120.781 s", "result": 504.713, "unit": "RLU"}, {"measurement": "RLU", "setting": "Time 122.781 s", "result": 501.616, "unit": "RLU"}, {"measurement": "RLU", "setting": "Time 124.781 s", "result": 482.612, "unit": "RLU"}, {"measurement": "RLU", "setting": "Time 126.781 s", "result": 503.591, "unit": "RLU"}, {"measurement": "RLU", "setting": "Time 128.781 s", "result": 486.957, "unit": "RLU"}, {"measurement": "RLU", "setting": "Time 130.781 s", "result": 500.459, "unit": "RLU"}, {"measurement": "RLU", "setting": "Time 132.781 s", "result": 472.597, "unit": "RLU"}, {"measurement": "RLU", "setting": "Time 134.781 s", "result": 498.526, "unit": "RLU"}, {"measurement": "RLU", "setting": "Time 136.781 s", "result": 501.497, "unit": "RLU"}, {"measurement": "RLU", "setting": "Time 137.547 s", "result": 471.412, "unit": "RLU"}, {"measurement": "RLU", "setting": "Time 143.547 s", "result": 482.177, "unit": "RLU"}, {"measurement": "RLU", "setting": "Time 149.547 s", "result": 466.386, "unit": "RLU"}, {"measurement": "RLU", "setting": "Time 155.547 s", "result": 451.788, "unit": "RLU"}, {"measurement": "RLU", "setting": "Time 161.547 s", "result": 449.152, "unit": "RLU"}, {"measurement": "RLU", "setting": "Time 167.547 s", "result": 425.382, "unit": "RLU"}, {"measurement": "RLU", "setting": "Time 173.547 s", "result": 442.283, "unit": "RLU"}, {"measurement": "RLU", "setting": "Time 179.547 s", "result": 425.607, "unit": "RLU"}, {"measurement": "RLU", "setting": "Time 185.547 s", "result": 410.079, "unit": "RLU"}, {"measurement": "RLU", "setting": "Time 191.547 s", "result": 397.165, "unit": "RLU"}, {"measurement": "RLU", "setting": "Time 197.547 s", "result": 392.705, "unit": "RLU"}, {"measurement": "RLU", "setting": "Time 203.547 s", "result": 382.875, "unit": "RLU"}, {"measurement": "RLU", "setting": "Time 209.547 s", "result": 387.748, "unit": "RLU"}, {"measurement": "RLU", "setting": "Time 215.547 s", "result": 381.118, "unit": "RLU"}, {"measurement": "RLU", "setting": "Time 221.547 s", "result": 374.673, "unit": "RLU"}, {"measurement": "RLU", "setting": "Time 227.547 s", "result": 340.738, "unit": "RLU"}, {"measurement": "RLU", "setting": "Time 233.547 s", "result": 357.908, "unit": "RLU"}, {"measurement": "RLU", "setting": "Time 239.547 s", "result": 329.058, "unit": "RLU"}, {"measurement": "RLU", "setting": "Time 245.547 s", "result": 312.353, "unit": "RLU"}, {"measurement": "RLU", "setting": "Time 293.547 s", "result": 280.532, "unit": "RLU"}, {"measurement": "RLU", "setting": "Time 299.547 s", "result": 302.8, "unit": "RLU"}, {"measurement": "Activation threshold concentration Tas2r108", "setting": "p < 0.01 vs empty vector", "result": 1, "unit": "µM"}, {"measurement": "RLU", "setting": "time 305.547 s", "result": 271.906, "unit": "RLU"}, {"measurement": "RLU", "setting": "time 311.547 s", "result": 293.129, "unit": "RLU"}, {"measurement": "RLU", "setting": "time 317.547 s", "result": 296.196, "unit": "RLU"}, {"measurement": "RLU", "setting": "time 323.547 s", "result": 325.759, "unit": "RLU"}, {"measurement": "RLU", "setting": "time 329.547 s", "result": 278.402, "unit": "RLU"}, {"measurement": "RLU", "setting": "time 335.547 s", "result": 309.885, "unit": "RLU"}, {"measurement": "RLU", "setting": "time 341.547 s", "result": 315.03, "unit": "RLU"}, {"measurement": "RLU", "setting": "time 347.547 s", "result": 300.184, "unit": "RLU"}, {"measurement": "RLU", "setting": "time 353.547 s", "result": 294.817, "unit": "RLU"}, {"measurement": "RLU", "setting": "time 359.547 s", "result": 274.663, "unit": "RLU"}]}
{"smiles": "C[C@H](CCC(=O)O)[C@H]1CC[C@H]2[C@@H]3[C@@H](O)C[C@@H]4C[C@H](O)CC[C@]4(C)[C@H]3CC[C@]12C", "note": "[Ursodeoxycholic Acid, ursodeoxycholic acid]", "values": [{"measurement": "Receptor response Tas2r108", "setting": "screening", "result": "does not respond"}]}
